From PMC9573696, “Experimental Examination of Solubility and Lipophilicity as Pharmaceutically Relevant Points of Novel Bioactive Hybrid Compounds” (Molecules, 2022)
Values after ≈ are worked out from the molar mass of the structure shown. Marks after values point to notes of the source that are not given here.

Key:
[1] = Equilibrium (thermodynamic) solubility, shake-flask method; format: physicochemical; settings: for Solubility S × 10^2 / Solubility x × 10^3: 1-Octanol; for Solubility S × 10^2 / Solubility x × 10^3 / Solubility S × 10^4 / Solubility x × 10^5 / Solubility S × 10^5 / Solubility x × 10^6: amorphous state; for Solubility S × 10^4 / Solubility x × 10^5: Buffer pH 2.0; for Solubility S × 10^5 / Solubility x × 10^6: Buffer pH 7.4
Excerpt: The experimental solubility values of hybrids in the selected solvents within the temperature range of 293.15–313.15 K expressed in molarity are summarized in Table 2. The comparative analysis of the reference values of the solubility of compounds I–III at the standard temperature of 298.15 K is given as a histogram in Figure 3.
Shake-flask method as “gold standard” was used for determination thermodynamic solubility synthesized compounds in buffer solutions (pH 2.0 and 7.4) and 1-octanol in the temperature range of 293.15–313.15 K with a step of 5 degrees at atmospheric pressure. Excessive amounts of compound were added to glass vials c 12 mL of selected solvent. The heterogeneous system is closed with a lid and vigorously stirred at the selected temperature in an air thermostat with a stirring device until the solubility equilibrium has been reached. The time required for establishing a constant value of the solution concentration was determined from the solubility kinetic dependences and averaged 2 days. The equilibrated solutions were first survived to aim sedimentation of solid phase during 10 h, then centrifuged at 20,000 rpm for 30 min at specific temperatures, and then quickly filtered using a syringe equipped with a hydrophilic filter Millex-GV 0.22 µm (Ireland). Concentration of saturated solution was measured using spectrophotometer Cary-50 (Varian, USA) with an accuracy of 2–4%. The absorbances of compounds studied were measured at wavelengths 332 and 334 nm in buffer solutions and 1-octanol, respectively. If necessary, an aliquot was diluted with an appropriate solvent. The final pH of the saturated buffers was monitored. The solubility of compounds in each solvent was determined by repeating the procedure three times.
Mole fraction concentration was calculated from solubility value S expressed in mol∙L^−1 using Equation (10):(10) x=M2S/S(M2−M1)+1000ρ, where M1 and M2 are the molar masses of solute and solvent, respectively, and ρ (g∙cm^−3) is the density of the pure solvents. The mole fraction solubilities for buffer solutions were calculated taking into account the buffer compositions. The used values of densities are given in Table S6 in Supplementary Material.

[2] = Apparent thermodynamic functions of dissolution (van't Hoff); format: physicochemical; settings: Thm = 302.98 K
Excerpt: The dissolution of the new hybrids was characterized based on apparent thermodynamic parameters obtained from temperature dependences of solubility of the studied compounds in the selected solvents (Figure 6). […] The van’t Hoff enthalpy of dissolution can be expressed as the inclination of a tangent to a solubility curve plotted as lnx vs. (1/T − 1/Thm) by Equation (6): (6) ΔHsolo=−R(∂lnx/∂(1/T−1/Thm))=−R⋅slope where R = 8.314 J⋅K^−1·mol^−1 is the universal gas constant. Thm = 302.98 K denotes the mean harmonic temperature, which was calculated by Equation (7):(7) Thm=n/∑i=1n1/Ti where n represented the number of experimental temperatures. The apparent standard Gibbs energy was evaluated by Equation (8):(8) ΔGsolo=−RThm×intersept
The apparent standard solution entropies were obtained from the well-known relationship:(9) ΔSsolo=ΔHsolo−ΔGsolo/Thm
The calculated apparent thermodynamic solubility functions of dissolution (Gibbs energy, enthalpy, and entropy) at standard temperature 298.15 K for hybrid compounds were collected in Table 4.

- Solubility S × 10^2 ([1]; 293.15 K): 1.1196 mol∙L^−1 (printed as S × 10^2)
- Solubility x × 10^3 ([1]; 293.15 K): 1.7767 mol. frac. (printed as x × 10^
- Solubility S × 10^2 ([1]; 298.15 K): 1.2269 mol∙L^−1 (printed as S × 10^2)
- Solubility x × 10^3 ([1]; 298.15 K): 1.9566 mol. frac. (printed as x × 10^
- Solubility S × 10^2 ([1]; 303.15 K): 1.3464 mol∙L^−1 (printed as S × 10^2)
- Solubility x × 10^3 ([1]; 303.15 K): 2.1577 mol. frac. (printed as x × 10^
- Solubility S × 10^2 ([1]; 308.15 K): 1.4730 mol∙L^−1 (printed as S × 10^2)
- Solubility x × 10^3 ([1]; 308.15 K): 2.3729 mol. frac. (printed as x × 10^
- Solubility S × 10^2 ([1]; 313.15 K): 1.6045 mol∙L^−1 (printed as S × 10^2)
- Solubility x × 10^3 ([1]; 313.15 K): 2.5979 mol. frac. (printed as x × 10^
- solubility at 2 days ([1]; 25 °C, organic solvent or mixture, thermodynamic from solid, 1-octanol, text values match 298.15 K, read-out: Solubility S in the alcohol (1-octanol)): 12.3 mM (≈ 8110 µg/mL)
- Solubility S × 10^4 ([1]; 293.15 K): 6.3622 mol∙L^−1 (printed as S × 10^4)
- Solubility x × 10^5 ([1]; 293.15 K): 1.1474 mol. frac. (printed as x × 10^
- Solubility S × 10^4 ([1]; 298.15 K): 6.7826 mol∙L^−1 (printed as S × 10^4)
- Solubility x × 10^5 ([1]; 298.15 K): 1.2247 mol. frac. (printed as x × 10^
- Solubility S × 10^4 ([1]; 303.15 K): 7.1958 mol∙L^−1 (printed as S × 10^4)
- Solubility x × 10^5 ([1]; 303.15 K): 1.3013 mol. frac. (printed as x × 10^
- Solubility S × 10^4 ([1]; 308.15 K): 7.5805 mol∙L^−1 (printed as S × 10^4)
- Solubility x × 10^5 ([1]; 308.15 K): 1.3731 mol. frac. (printed as x × 10^
- Solubility S × 10^4 ([1]; 313.15 K): 7.9724 mol∙L^−1 (printed as S × 10^4)
- Solubility x × 10^5 ([1]; 313.15 K): 1.4468 mol. frac. (printed as x × 10^
- Solubility S × 10^5 ([1]; 293.15 K): 5.8572 mol∙L^−1 (printed as S × 10^5)
- Solubility x × 10^6 ([1]; 293.15 K): 1.0651 mol. frac. (printed as x × 10^
- Solubility S × 10^5 ([1]; 298.15 K): 6.7347 mol∙L^−1 (printed as S × 10^5)
- Solubility x × 10^6 ([1]; 298.15 K): 1.2262 mol. frac. (printed as x × 10^
- Solubility S × 10^5 ([1]; 303.15 K): 7.7877 mol∙L^−1 (printed as S × 10^5)
- Solubility x × 10^6 ([1]; 303.15 K): 1.4201 mol. frac. (printed as x × 10^
- Solubility S × 10^5 ([1]; 308.15 K): 8.9503 mol∙L^−1 (printed as S × 10^5)
- Solubility x × 10^6 ([1]; 308.15 K): 1.6349 mol. frac. (printed as x × 10^
- Solubility S × 10^5 ([1]; 313.15 K): 10.2665 mol∙L^−1 (printed as S × 10^5)
- Solubility x × 10^6 ([1]; 313.15 K): 1.8788 mol. frac. (printed as x × 10^
- TΔSsolo ([2]; 1-Octanol): -0.22 kcal/mol
- ΔGsolo ([2]; 1-Octanol): 3.68 ± 0.072 kcal/mol
- ΔHsolo ([2]; 1-Octanol): 3.47 ± 0.024 kcal/mol
- ΔSsolo ([2]; 1-Octanol): −3.1 ± 0.2 J·mol^−1·K^−1
- TΔSsolo ([2]; Buffer pH 2.0): -4.59 kcal/mol
- ΔGsolo ([2]; Buffer pH 2.0): 6.69 ± 0.096 kcal/mol
- ΔHsolo ([2]; Buffer pH 2.0): 2.1 ± 0.024 kcal/mol
- ΔSsolo ([2]; Buffer pH 2.0): −64.4 ± 3.8 J·mol^−1·K^−1
- TΔSsolo ([2]; Buffer pH 7.4): -2.87 kcal/mol
- ΔGsolo ([2]; Buffer pH 7.4): 8.05 ± 0.17 kcal/mol
- ΔHsolo ([2]; Buffer pH 7.4): 5.19 ± 0.048 kcal/mol
- ΔSsolo ([2]; Buffer pH 7.4): −40.3 ± 2.3 J·mol^−1·K^−1
SMILES: O=c1c2sc(=S)n(-c3ccc(Cl)cc3)c2ncn1CCCN1CCN(CC(O)(Cn2cncn2)c2ccc(F)cc2F)CC1 (stereo not shown) [III, 6-[3-[4-[2-(2,4-difluorophenyl)-2-hydroxy-3-(1H-1,2,4-triazol-1-yl)propyl]-1-piperazinyl]propyl]-2,3-dihydro-3-(4-chlorophenyl)-2-thioxo-thiazolo[4,5-d]pyrimidin-7(6H)-one]
